Read-outs that look alike come from different tables or passages of the source.
Legend:
[1] = test system: cellular dehydrogenase activity; conditions: for MTT (composite Z-score): normalized score vs mock-treated (DMSO) wells
cytochrome c = format: cell-based, mouse; conditions: for cyt c (composite Z-score): normalized score vs mock-treated (DMSO) wells
OXPHOS gene expression = format: cell-based, mouse; conditions: for GE-HTS (composite Z-score): normalized score vs mock-treated (DMSO) wells
reactive oxygen species = format: cell-based, mouse; conditions: for ROS (composite Z-score): normalized score vs mock-treated (DMSO) wells
C2C12 myotubes = conditions: for Viability (composite Z-score): normalized score vs mock-treated (DMSO) wells
mtOXPHOS transcripts = format: cell-based, mouse; conditions: for mitoOX (composite Z-score): normalized score vs mock-treated (DMSO) wells
nuOXPHOS transcripts = format: cell-based, mouse; conditions: for nucOX (composite Z-score): normalized score vs mock-treated (DMSO) wells
[2] = test system: mitochondrial membrane potential; format: cell-based, mouse; conditions: for ΔΨm (composite Z-score): normalized score vs mock-treated (DMSO) wells
[3] = 20 μM, composite Z-score vs DMSO
[4] = 20.6 μM, composite Z-score vs DMSO
[5] = composite Z-score vs DMSO, Conc 20 μM
[6] = normalized composite Z-score vs mock-treated (DMSO) wells, Conc 20 μM
[7] = composite Z-score vs mock-treated (DMSO) wells, Conc 20 μM
[8] = Table 7, C2C12 myotubes, 48 h, composite Z-score
[9] = 25.78 μM, composite Z-score vs DMSO
[10] = composite Z-score vs DMSO wells, Conc 20 μM

## Nc1ccc(C(=O)NCC(=O)O)cc1 [aminohippuric acid]
[1]; [3]
  MTT: −0.983
[1]; [4]
  MTT: −0.126
Cytochrome c; [3]
  cyt c: 0.243
Cytochrome c; [4]
  cyt c: 0.320
OXPHOS gene expression; [3]
  GE-HTS: 0.220
OXPHOS gene expression; [4]
  GE-HTS: 0.568
Reactive oxygen species; [3]
  ROS: −0.310
Reactive oxygen species; [4]
  ROS: 0.426
C2C12 myotubes; [3]
  Viability: 0.597
C2C12 myotubes; [4]
  Viability: −0.266
mtOXPHOS transcripts; [3]
  mitoOX: 0.304
mtOXPHOS transcripts; [4]
  mitoOX: −0.395
nuOXPHOS transcripts; [3]
  nucOX: 0.160
nuOXPHOS transcripts; [4]
  nucOX: 0.976
[2]; [3]
  ΔΨm: −0.606
[2]; [4]
  ΔΨm: −0.343

## Cc1ccc(/N=C/N(C)/C=N/c2ccc(C)cc2C)c(C)c1 [amitraz]
[1]; [5]
  MTT: −1.572
Cytochrome c; [5]
  cyt c: 0.292
OXPHOS gene expression; [5]
  GE-HTS: −0.526
Reactive oxygen species; [5]
  ROS: 0.867
C2C12 myotubes; [5]
  Viability: −1.025
mtOXPHOS transcripts; [5]
  mitoOX: −0.814
nuOXPHOS transcripts; [5]
  nucOX: −0.299
[2]; [5]
  ΔΨm: −0.741

## CCN(CC)Cc1cc(Nc2ccnc3cc(Cl)ccc23)ccc1O [amodiaquine]
[1]; [3]
  MTT: −1.008
Cytochrome c; [3]
  cyt c: −0.008
OXPHOS gene expression; [3]
  GE-HTS: 0.398
Reactive oxygen species; [3]
  ROS: 0.877
C2C12 myotubes; [3]
  Viability: −0.547
mtOXPHOS transcripts; [3]
  mitoOX: 0.481
nuOXPHOS transcripts; [3]
  nucOX: 0.317
[2]; [3]
  ΔΨm: −1.178

## N=c1ccn2c(n1)O[C@H]1[C@H](O)[C@@H](CO)O[C@H]12 [ancitabine]
[1]; Conc 20 μM
  MTT (composite Z-score): −2.731
Cytochrome c; Conc 20 μM
  cyt c (composite Z-score): −0.158
OXPHOS gene expression; Conc 20 μM
  GE-HTS (composite Z-score): −1.115
Reactive oxygen species; Conc 20 μM
  ROS (composite Z-score): −0.189
C2C12 myotubes; Conc 20 μM
  Viability (composite Z-score): −0.655
mtOXPHOS transcripts; Conc 20 μM
  mitoOX (composite Z-score): −0.726
nuOXPHOS transcripts; Conc 20 μM
  nucOX (composite Z-score): −1.182
[2]; Conc 20 μM
  ΔΨm (composite Z-score): −0.986

## C=C1CC[C@@H]2[C@](C)(CO)[C@H](O)CC[C@@]2(C)[C@@H]1C/C=C1/C(=O)OC[C@H]1O [andrographolide]
[1]; [6]
  MTT: −0.901
Cytochrome c; [6]
  cyt c: −0.044
OXPHOS gene expression; [6]
  GE-HTS: −1.323
Reactive oxygen species; [6]
  ROS: −1.813
C2C12 myotubes; [6]
  Viability: −0.686
mtOXPHOS transcripts; [6]
  mitoOX: −2.361
nuOXPHOS transcripts; [6]
  nucOX: −0.698
[2]; [6]
  ΔΨm: −0.165

## C[C@]12C=CC(=O)C=C1CC[C@@H]1[C@@H]2CC[C@]2(C)C(=O)CC[C@@H]12 [androsta-1,4-dien-3,17-dione]
[1]; [5]
  MTT: −0.500
Cytochrome c; [5]
  cyt c: 0.261
OXPHOS gene expression; [5]
  GE-HTS: −0.180
Reactive oxygen species; [5]
  ROS: 0.068
C2C12 myotubes; [5]
  Viability: 0.162
mtOXPHOS transcripts; [5]
  mitoOX: −0.189
nuOXPHOS transcripts; [5]
  nucOX: −0.143
[2]; [5]
  ΔΨm: 0.152

## C=C1[C@@H]2CC[C@@]3(C)[C@H](c4ccoc4)OC(=O)C[C@]13O[C@H]1CC(=O)C(C)(C)[C@H](CC(=O)OC)[C@]12C [angolensic acid, methyl ester]
[1]; [7]
  MTT: 0.322
Cytochrome c; [7]
  cyt c: −0.204
OXPHOS gene expression; [7]
  GE-HTS: 0.827
Reactive oxygen species; [7]
  ROS: 0.465
C2C12 myotubes; [7]
  Viability: 1.019
mtOXPHOS transcripts; [7]
  mitoOX: 0.813
nuOXPHOS transcripts; [7]
  nucOX: 0.729
[2]; [7]
  ΔΨm: 0.163

## COc1ccc2c(=O)c(CC(=O)O)coc2c1 [anhydrobrazilic acid, reference compound]
[1]; [6]
  MTT: −1.007
Cytochrome c; [6]
  cyt c: 0.579
OXPHOS gene expression; [6]
  GE-HTS: 1.730
Reactive oxygen species; [6]
  ROS: 0.388
C2C12 myotubes; [6]
  Viability: −0.072
mtOXPHOS transcripts; [8]
  mito-OXPHOS Z: 1.68
mtOXPHOS transcripts; [6]
  mitoOX: 1.678
nuOXPHOS transcripts; [8]
  nucOXPHOS Z: 1.56
nuOXPHOS transcripts; [6]
  nucOX: 1.559
[2]; [6]
  ΔΨm: −0.353

## O[C@H]1[C@H](O)[C@@H](O)C2OC[C@H]1O2 [anhydroglucose]
[1]; [5]
  MTT: 0.041
Cytochrome c; [5]
  cyt c: 0.688
OXPHOS gene expression; [5]
  GE-HTS: −0.046
Reactive oxygen species; [5]
  ROS: 0.238
C2C12 myotubes; [5]
  Viability: 0.168
mtOXPHOS transcripts; [5]
  mitoOX: −0.745
nuOXPHOS transcripts; [5]
  nucOX: 0.322
[2]; [5]
  ΔΨm: −0.480

## CC1=C(/C=C/C(C)=C/C=C/C(C)=C/C=C/C=C(C)/C=C/C=C(C)/C=C/[C@@]23O[C@]2(C)C[C@@H](O)CC3(C)C)C(C)(C)C[C@H](O)C1 [antheraxanthin]
[1]; [6]
  MTT: −0.804
Cytochrome c; [6]
  cyt c: −0.206
OXPHOS gene expression; [6]
  GE-HTS: 0.013
Reactive oxygen species; [6]
  ROS: 0.244
C2C12 myotubes; [6]
  Viability: −0.496
mtOXPHOS transcripts; [6]
  mitoOX: −0.011
nuOXPHOS transcripts; [6]
  nucOX: 0.026
[2]; [6]
  ΔΨm: −0.305

## O=c1cc(-c2ccc(O)cc2)oc2cc(O[C@@H]3O[C@H](CO)[C@@H](O)[C@H](O)[C@H]3O[C@@H]3OC[C@](O)(CO)[C@H]3O)cc(O)c12 [apiin]
[1]; [5]
  MTT: −1.444
Cytochrome c; [5]
  cyt c: −0.697
OXPHOS gene expression; [5]
  GE-HTS: −0.032
Reactive oxygen species; [5]
  ROS: 0.322
C2C12 myotubes; [5]
  Viability: −0.631
mtOXPHOS transcripts; [5]
  mitoOX: 0.250
nuOXPHOS transcripts; [5]
  nucOX: −0.150
[2]; [5]
  ΔΨm: 0.029

## CN[C@@H]1[C@@H](O[C@H]2O[C@H](CO)[C@@H](N)[C@H](O)[C@H]2O)OC2C[C@@H](N)[C@@H](O[C@H]3[C@H](O)[C@@H](O)[C@H](N)C[C@@H]3N)OC2[C@@H]1O (stereo partly shown) [apramycin]
[1]; [5]
  MTT: −0.808
Cytochrome c; [5]
  cyt c: 0.223
OXPHOS gene expression; [5]
  GE-HTS: 0.477
Reactive oxygen species; [5]
  ROS: −0.105
C2C12 myotubes; [5]
  Viability: −1.979
mtOXPHOS transcripts; [5]
  mitoOX: 0.494
nuOXPHOS transcripts; [5]
  nucOX: 0.413
[2]; [5]
  ΔΨm: −0.407

## COC(=O)C1=CCCN(C)C1 [arecoline]
[1]; [3]
  MTT: −0.452
[1]; [9]
  MTT: −0.607
Cytochrome c; [3]
  cyt c: 0.839
Cytochrome c; [9]
  cyt c: 0.503
OXPHOS gene expression; [3]
  GE-HTS: −0.545
OXPHOS gene expression; [9]
  GE-HTS: 0.098
Reactive oxygen species; [3]
  ROS: −1.032
Reactive oxygen species; [9]
  ROS: −1.084
C2C12 myotubes; [3]
  Viability: 0.018
C2C12 myotubes; [9]
  Viability: 0.481
mtOXPHOS transcripts; [3]
  mitoOX: −1.072
mtOXPHOS transcripts; [9]
  mitoOX: −0.513
nuOXPHOS transcripts; [3]
  nucOX: −0.261
nuOXPHOS transcripts; [9]
  nucOX: 0.385
[2]; [3]
  ΔΨm: −0.451
[2]; [9]
  ΔΨm: −0.281

## C[C@@H]1CC[C@H]2[C@@H](C)C(=O)O[C@@H]3O[C@@]4(C)CC[C@@H]1[C@]32OO4 [artemisinin]
[1]; [10]
  MTT: 0.616
Cytochrome c
  cyt c: 0.522
Cytochrome c; [10]
  cyt c: 1.104
OXPHOS gene expression; [10]
  GE-HTS: 0.704
Reactive oxygen species; [10]
  ROS: 0.123
C2C12 myotubes; [10]
  Viability: 0.336
mtOXPHOS transcripts; [10]
  mitoOX: 0.903
nuOXPHOS transcripts; [10]
  nucOX: 0.537
[2]; [10]
  ΔΨm: −0.832

## CCCCCC(=O)Cc1cc(O)cc(O)c1C(=O)Oc1cc(CC(=O)CCCCC)c(C(=O)O)c(OC)c1 [arthonioic acid]
[1]; [5]
  MTT: −2.597
Cytochrome c; [5]
  cyt c: −0.019
OXPHOS gene expression; [5]
  GE-HTS: −0.668
Reactive oxygen species; [5]
  ROS: 1.167
C2C12 myotubes; [5]
  Viability: −0.413
mtOXPHOS transcripts; [5]
  mitoOX: −0.657
nuOXPHOS transcripts; [5]
  nucOX: −0.590
[2]; [5]
  ΔΨm: −0.493

## CC1=CC(=O)C2=C(C)C[C@H](O)[C@@H]3[C@H](OC(=O)[C@H]3C)[C@H]12 [austricine]
[1]; Conc 20 μM
  MTT (composite Z-score): −1.268
Cytochrome c; Conc 20 μM
  cyt c (composite Z-score): 0.842
OXPHOS gene expression; Conc 20 μM
  GE-HTS (composite Z-score): 0.165
Reactive oxygen species; Conc 20 μM
  ROS (composite Z-score): 0.665
C2C12 myotubes; Conc 20 μM
  Viability (composite Z-score): −0.394
mtOXPHOS transcripts; Conc 20 μM
  mitoOX (composite Z-score): 0.349
nuOXPHOS transcripts; Conc 20 μM
  nucOX (composite Z-score): 0.081
[2]; Conc 20 μM
  ΔΨm (composite Z-score): −0.711

## C#CCCCCCCCCCCCC(O)CC(O)CO (stereo not shown) [avocadyne]
[1]; [5]
  MTT: −0.646
[1]; [6]
  MTT: −0.369
Cytochrome c; [5]
  cyt c: −0.049
Cytochrome c; [6]
  cyt c: 0.738
OXPHOS gene expression; [5]
  GE-HTS: −1.062
OXPHOS gene expression; [6]
  GE-HTS: 0.405
Reactive oxygen species; [5]
  ROS: 0.611
Reactive oxygen species; [6]
  ROS: 0.322
C2C12 myotubes; [5]
  Viability: −0.546
C2C12 myotubes; [6]
  Viability: 0.816
mtOXPHOS transcripts; [5]
  mitoOX: −0.897
mtOXPHOS transcripts; [6]
  mitoOX: 0.242
nuOXPHOS transcripts; [5]
  nucOX: −1.019
nuOXPHOS transcripts; [6]
  nucOX: 0.457
[2]; [5]
  ΔΨm: −0.029
[2]; [6]
  ΔΨm: −0.266

From patent US20090143279A1 (priority 2007, published 2009)
